Measurements published in patent publication US6534499B2, “N-substituted-N′-substituted urea derivatives and the use thereof as TNF-α production inhibitory agents” (Santen Pharmaceutical Co., Ltd., priority 1999, dated 2003).

system: TNF-α production induced by LPS (plasma TNF-α); experiment: In vivo test: plasma TNF-α level in LPS-administered mice; details: female mice; 10 mg/kg subcutaneously immediately after LPS i.p.; plasma one hour after LPS; mouse TNF-α ELISA
Method: (§1) Each candidate compound was inspected for the effect of inhibiting TNF-α production induced by the stimulation with lipopolysaccharide (LPS), by an in vitro or in vivo test according to the method proposed by McGeehan et al. (Nature, 1994, 370:558-561).
Animals used herein were about 7-week-old female mice (5 animals per group) having a body weight of about 20 g. The LPS herein used was derived from Salmonella and it was dissolved in phosphate-buffered physiological saline prior to the practical use (20 μg/ml). Each candidate compound was dissolved or suspended in a 2% dimethyl sulfoxide-containing physiological saline to give a uniform solution or suspension (1 mg/ml).
The LPS solution (10 ml/kg) prepared above was intraperitoneally administered to each test mouse. Immediately after the administration of the LPS solution, the solution of each candidate compound prepared above (10 ml/kg, containing 10 mg/kg of the candidate compound) was subcutaneously injected to each animal. After one hour from the administration of the LPS, each animal was decapitated, the blood was collected from the animal and the blood was centrifuged at 4° C., 3000 rpm for 5 minutes. The resulting plasma was inspected for the level of TNF-α using the mouse TNF-α -specific ELISA kit. In this connection, any TNF-α was not detected in the plasma derived from the animal group free of the LPS-administration (control group).
The rate of TNF-α production-inhibitory effect observed for each candidate compound was determined according to the following equation:
Inhibitory Rate (%)=100×(A−B)/A
Wherein A is the level of TNF-α detected in the plasma derived from the animal group to which any candidate compound was not administered and B is the level of TNF-α detected in the plasma derived from the animal group to which a candidate compound was administered.

Row | Structure (SMILES) | Inhibitory Rate (%) of TNF-α production [%]
1 | CCN1CCCC1CNC(=O)N(CCSC(C)=O)CCC1CCCCC1 (racemic) [Compound 3-17, 1-[2-(Acetylthio)ethyl]-1-(2-cyclohexylethyl)-3-[[(2RS)-1-ethyl-2-pyrrolidinyl]methyl] urea] | 52
2 | CC(=O)SCCN(CCC1CCCCC1)C(=O)NCCN1CCCC1 [Compound 3-2, 1-[2-(Acetylthio)ethyl]-1-(2-cyclohexylethyl)-3-[2-(1-pyrrolidinyl)ethyl]-urea] | 50
3 | CC(=O)SCCN(CCC1CCCCC1)C(=O)NCCCN1CCCC1 [Compound 3-3, 1-[2-(Acetylthio)ethyl]-1-(2-cyclohexylethyl)-3-[3-(1-pyrrolidinyl)propyl]-urea] | 64
4 | CC(=O)SCCN(CCC1CCCCC1)C(=O)NCCCN1CCCCC1 [Compound 3-4, 1-[2-(Acetylthio)ethyl]-1-(2-cyclohexylethyl)-3-[3-(1-piperidyl)propyl]urea] | 51
5 | CC(=O)SCCN(CCC1CCCCC1)C(=O)NCCN1CCCCCC1 [Compound 3-9, 1-[2-(Acetylthio)ethyl]-1-(2-cyclohexylethyl)-3-[2-(l-homopiperidyl)ethyl]-urea] | 76
6 | CC(=O)SCCN(CCC1CCCCC1)C(=O)NCCN1CCCCC1.Cl [Compound 6-1, 1-[2-(Acetylthio)ethyl]-1-(2-cyclohexylethyl)-3-[2-(1-piperidyl)-ethyl]urea hydrochloride] | 78
7 | CC(=O)SCCN(CCC1CCCCC1)C(=O)NCC1CCN(C)CC1.Cl [Compound 6-3, 1-[2-(Acetylthio)ethyl]-1-(2-cyclohexylethyl)-3-[(1-methyl-4-piperidyl)-methyl]urea hydrochloride] | 50
8 | CSCCN(CCC1CCCCC1)C(=O)NCCN1CCCCC1.Cl [Compound 6-4, 1-(2-Cyclohexylethyl)-1-[2-(methylthio)ethyl]-3-[2-(1-piperidyl)ethyl]urea hydrochloride] | 59

system: not given; experiment: not given; details: not given

Row | Structure (SMILES) | melting point
9 | O=C(NCC1CCN(C(=O)OCc2ccccc2)CC1)N(CCO)CCC1CCCCC1 [Compound 1-18, 1-[[1-(Benzyloxycarbonyl)-4-piperidyl]methyl]-3-(2-cyclohexylethyl)-3-(2-hydroxy-ethyl) urea] | 94.5 to 95.5 °C
10 | CC(=O)SCCN(CCC1CCCCC1)C(=O)NCCN1CCC(N(C)C)CC1.Cl.Cl [Compound 6-2, 1-[2-(Acetylthio)ethyl]-1-(2-cyclohexylethyl)-3-[2-[4-(dimethylamino)-1-piperidyl]ethyl]urea di-hydrochloride] | 170 °C (dec.)

system: TNF-α produced by the human monocyte strain THP-1; experiment: In vitro test: TNF-α production by THP-1 cells induced by stimulation with LPS; assay type: cell-based; details: 2 h; compound 10^−5M; THP-1 cells 10^6 cells/ml; LPS 2 μg/ml; 37° C., two hours; human TNF-α ELISA; read-out: Inhibitory Rate (%) of TNF-α production
Method: as §1
The test was carried out by, determining the amount of TNF-α produced by the human monocyte strain THP-1 induced by the stimulation with LPS.
The culture medium used in this test was RPMI 1640 culture medium supplemented wiTNFetal calf serum (10%), L-glutamine (2 mM), 2-mercaptoethanol (50 μM), penicillin (50 units/ml) and streptomycin (50 μg/ml).
Regarding the cells, the human monocyte strain THP-1 cells cultivated in the foregoing culture medium were centrifuged at 100 xg for 5 minutes to remove the supernatant and then again suspended in a fresh culture medium prior to the practical use. The LPS used herein was derived from S. Typhimurium and this was dissolved in purified water and then diluted with the culture medium prior to use. Each compound to be tested was dissolved in dimethyl sulfoxide (DMSO) and diluted with the culture medium prior to the practical use.
The cells (10^6 cells/ml) prepared according to the foregoing method were admixed with the LPS (2 μg/ml) and a compound to be tested (10^−5M), the cells were incubated at 37° C. for two hours and then centrifuged at 1000 xg for 5 minutes. The resulting supernatant of the culture medium was inspected for the level of TNF-α using the human TNF-α -specific ELISA kit. In this connection, it was confirmed that the supernatant obtained by cultivating the cells in the culture medium free of any LPS (control) never included any TNF-α.
The rate of the TNF-α production inhibitory effect observed for each candidate compound was determined according to the following equation: […]
Wherein A is the level of TNF-α detected in the supernatant obtained from the culture medium free of any candidate compound and B is the level of TNF-α detected in the supernatant obtained from the culture medium containing a candidate compound.

Row | Structure (SMILES) | inhibition at 10 µM [%]
11 | CC(=O)SCCN(CCc1ccccc1)C(=O)N[C@@H](Cc1ccccc1)CN1CCN(C)CC1 [Compound 3-6, 1-[2-(Acetylthio)ethyl]-3-[(1S)-1-benzyl-2-(4-methylpiperazin-1-yl)ethyl]-1-phenethyl urea] | 94
12 | CC(=O)SCCN(CCC1CCCCC1)C(=O)NCCN1CC=CCC1 [Compound 3-13, 1-[2-(Acetylthio)ethyl]-1-(2-cyclohexylethyl)-3-[2-(1,2,5,6-tetrahydropyridin-1-yl)ethyl] urea] | 66
13 | CC(=O)SCCN(CCC1CCCCC1)C(=O)NCCN1CCC(N(C)C)CC1.Cl.Cl [Compound 6-2, 1-[2-(Acetylthio)ethyl]-1-(2-cyclohexylethyl)-3-[2-[4-(dimethylamino)-1-piperidyl]ethyl]urea di-hydrochloride] | 58
